For 14 compounds, GI50 and TGI results are on record in PubChem BioAssay (NCI).

Each structure is given as a SMILES string.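 Method: 48-hour compound exposure of cells in 96-well plates, five concentrations, linear interpolation of endpoints. At the GI50, growth is halved. Definition used: TGI = concentration required for complete inhibition of growth.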

Among the test systems are ACHN renal; EKVX NSCLC; HT29 colon; K-562 leukemia; LOX IMVI melanoma; OVCAR-8 ovarian; SN12C renal; SNB-19 CNS; U251 CNS; UACC-62 melanoma.
What all share (test): growth of human tumour cells (NCI), 48 h

In the case of `NS(=O)(=O)c1ccc(N2N=C3c4ccccc4CC3C2c2cccs2)cc1` (stereo not given), the GI50 was 19.8 µM in the experiment with ACHN renal; 15.9 µM with EKVX NSCLC; 26.1 µM in the experiment with HT29 colon; 5.75 µM in the experiment with K-562 leukemia; 19.1 µM in the experiment with LOX IMVI melanoma; 15.3 µM in the experiment with OVCAR-8 ovarian. Moreover, the GI50 with SN12C renal was 23.5 µM; in the experiment on SNB-19 CNS, 34.4 µM; with U251 CNS, 19.4 µM; in the experiment on UACC-62 melanoma, 21.8 µM. For the same compound, the TGI is 36.3 µM in the experiment with ACHN renal; 52.5 µM in the experiment on EKVX NSCLC; > 100 µM in the experiment on HT29 colon; 81.9 µM in the experiment on K-562 leukemia; 42.6 µM in the experiment with LOX IMVI melanoma; 40.1 µM in the experiment on OVCAR-8 ovarian. For the same compound, the TGI was 48.9 µM in the experiment on SN12C renal, > 100 µM with SNB-19 CNS, 39.6 µM with U251 CNS and 44.3 µM in the experiment on UACC-62 melanoma.

Turning to `O=C(O)/C=C\C(=O)Nc1ccccn1`, the TGI with ACHN renal, with EKVX NSCLC, in the experiment with HT29 colon, in the experiment on K-562 leukemia, in the experiment on LOX IMVI melanoma and in the experiment with OVCAR-8 ovarian was > 100 µM each time. Also, the TGI in the experiment with SN12C renal, in the experiment on SNB-19 CNS, with U251 CNS and with UACC-62 melanoma was > 100 µM in each case.

In the case of `CN(C)c1ccc(/C=C2\N=C(c3ccccc3)N(c3cc(C(F)(F)F)ccc3Cl)C2=O)cc1`, the GI50 in the experiment with ACHN renal, in the experiment on EKVX NSCLC, in the experiment on HT29 colon, in the experiment with K-562 leukemia, in the experiment with LOX IMVI melanoma and in the experiment with OVCAR-8 ovarian was > 100 µM throughout. The GI50 is > 100 µM in the experiment with SN12C renal, > 100 µM in the experiment on SNB-19 CNS, > 94.7 µM in the experiment on U251 CNS and > 100 µM with UACC-62 melanoma. The TGI with ACHN renal, with EKVX NSCLC, with HT29 colon, with K-562 leukemia, in the experiment on LOX IMVI melanoma and with OVCAR-8 ovarian was > 100 µM throughout. Further, the TGI in the experiment on SN12C renal, in the experiment with SNB-19 CNS, in the experiment on U251 CNS and in the experiment with UACC-62 melanoma was > 100 µM each time.

`C#CCNC(=S)N/N=C(\C)c1ccccn1`: the GI50 is 0.313 µM in the experiment on ACHN renal; 0.595 µM with EKVX NSCLC; 0.234 µM in the experiment on HT29 colon; 0.0751 µM in the experiment with K-562 leukemia; 0.588 µM in the experiment on LOX IMVI melanoma; 0.284 µM in the experiment on OVCAR-8 ovarian. For the same compound, the GI50 in the experiment on SN12C renal was 0.388 µM; with SNB-19 CNS it was 3.43 µM; in the experiment on U251 CNS it was 0.408 µM; in the experiment on UACC-62 melanoma, 1.12 µM. For the same compound, the TGI was > 100 µM in the experiment on ACHN renal; > 100 µM in the experiment with EKVX NSCLC; > 100 µM in the experiment with HT29 colon; > 100 µM in the experiment with K-562 leukemia; > 32 µM in the experiment with LOX IMVI melanoma; > 100 µM in the experiment on OVCAR-8 ovarian. For the same compound, the TGI in the experiment on SN12C renal is > 100 µM; in the experiment with SNB-19 CNS, > 100 µM; in the experiment with U251 CNS, > 100 µM; in the experiment on UACC-62 melanoma it was 4.38 µM.

Turning to `Cn1cccc1-c1cc(-c2ccccc2)[nH]c(=O)c1C#N`, the GI50 with ACHN renal was > 100 µM; in the experiment with EKVX NSCLC, 37.3 µM; with HT29 colon, > 100 µM; with K-562 leukemia it was > 100 µM; in the experiment with LOX IMVI melanoma, > 100 µM; with OVCAR-8 ovarian it was > 100 µM. Also, the GI50 in the experiment on SN12C renal is > 100 µM; in the experiment on SNB-19 CNS, > 100 µM; with U251 CNS, > 100 µM; in the experiment with UACC-62 melanoma it was 95 µM. The TGI in the experiment with ACHN renal, in the experiment with EKVX NSCLC, in the experiment with HT29 colon, in the experiment with K-562 leukemia, in the experiment on LOX IMVI melanoma and with OVCAR-8 ovarian was > 100 µM each time. Besides, the TGI in the experiment with SN12C renal, in the experiment on SNB-19 CNS, with U251 CNS and in the experiment with UACC-62 melanoma was > 100 µM in each case.

For the compound `CN(Cc1ccc(C(F)(F)F)cc1)CC(O)C(=O)Nc1ccc(Cl)cc1` (stereo not given), the GI50 is 1.55 µM in the experiment on ACHN renal; 1.18 µM in the experiment on EKVX NSCLC; 1.39 µM with HT29 colon; 1.18 µM in the experiment on K-562 leukemia; 1.05 µM with LOX IMVI melanoma; 1.8 µM with OVCAR-8 ovarian. Moreover, the GI50 with SN12C renal is 1.49 µM; with SNB-19 CNS, 1.78 µM; with U251 CNS, 1.73 µM; with UACC-62 melanoma, 1.64 µM. The TGI came out at 2.92 µM in the experiment on ACHN renal; 2.51 µM in the experiment on EKVX NSCLC; 2.77 µM with HT29 colon; 2.78 µM with K-562 leukemia; 2.3 µM in the experiment on LOX IMVI melanoma; 3.5 µM in the experiment on OVCAR-8 ovarian. The TGI worked out at 2.88 µM in the experiment on SN12C renal, 3.28 µM in the experiment on SNB-19 CNS, 3.16 µM in the experiment with U251 CNS and 3.13 µM in the experiment with UACC-62 melanoma.

Consider `CCc1ccccc1NC(=O)/C=C/c1ccccc1`, for which the TGI in the experiment with ACHN renal, in the experiment on EKVX NSCLC, with HT29 colon, in the experiment with K-562 leukemia, in the experiment with LOX IMVI melanoma and with OVCAR-8 ovarian was > 100 µM each time. Further, the TGI with SN12C renal, in the experiment on SNB-19 CNS, with U251 CNS and in the experiment with UACC-62 melanoma was > 100 µM throughout.

For `COC(=O)CCC12CCC(=O)C1[C@@H](C(=O)OC)C[C@H]2C(=O)OC` (stereo not given in full), the TGI in the experiment on ACHN renal, with EKVX NSCLC, in the experiment on HT29 colon, in the experiment on K-562 leukemia, in the experiment with LOX IMVI melanoma and with OVCAR-8 ovarian was > 100 µM in each case. Moreover, the TGI with SN12C renal, in the experiment on SNB-19 CNS, with U251 CNS and with UACC-62 melanoma was > 100 µM in each case.

On to `Cc1ccc(S(=O)(=O)N=NC=C2c3ccccc3N(O)c3ccccc32)cc1`, for which the TGI with ACHN renal was 9.43 µM; in the experiment on EKVX NSCLC, 40 µM; in the experiment on HT29 colon, 13.2 µM; with K-562 leukemia, 13 µM; in the experiment on LOX IMVI melanoma it was 2.76 µM; in the experiment with OVCAR-8 ovarian, 14.7 µM. Further, the TGI was found to be 16.6 µM with SN12C renal, 24.2 µM in the experiment with SNB-19 CNS, 13.1 µM with U251 CNS and 18.8 µM in the experiment with UACC-62 melanoma.

As to `C1=C/COCc2cc(ccc2OCCN2CCCC2)Nc2nccc(n2)-c2ccc(o2)COC/1`, the GI50 in the experiment on ACHN renal was 0.699 µM; with EKVX NSCLC, 1.88 µM; in the experiment on HT29 colon, 1.33 µM; in the experiment with K-562 leukemia, 2.65 µM; in the experiment on LOX IMVI melanoma, 0.817 µM; in the experiment on OVCAR-8 ovarian, 2.59 µM. The GI50 in the experiment with SN12C renal is 0.99 µM; in the experiment on SNB-19 CNS, 2.93 µM; with U251 CNS, 3.07 µM; in the experiment on UACC-62 melanoma, 1.42 µM. Also, the TGI was 11.8 µM in the experiment with ACHN renal; 5.89 µM in the experiment on EKVX NSCLC; 7.33 µM in the experiment with HT29 colon; > 33.1 µM in the experiment with K-562 leukemia; 2.29 µM with LOX IMVI melanoma; 18.8 µM in the experiment on OVCAR-8 ovarian. Besides, the TGI in the experiment on SN12C renal was 5 µM; in the experiment with SNB-19 CNS, 13.5 µM; in the experiment with U251 CNS, 14.7 µM; in the experiment with UACC-62 melanoma, 3.08 µM.

As to `CCCn1cnc2c(SCC(=O)O)nc(N)nc21`, the TGI in the experiment on ACHN renal, in the experiment with EKVX NSCLC, in the experiment on HT29 colon, in the experiment on K-562 leukemia, in the experiment on LOX IMVI melanoma and in the experiment on OVCAR-8 ovarian was > 100 µM each time. Further, the TGI in the experiment with SN12C renal, with SNB-19 CNS, with U251 CNS and in the experiment with UACC-62 melanoma was > 100 µM each time.

On to `O=C(Nc1ccc(-n2ccc3c(NC(=O)c4ccccc4)ncnc32)cc1)c1cccc(C(F)(F)F)c1`, for which the GI50 with ACHN renal was 1.09 µM; with EKVX NSCLC, 6.38 µM; in the experiment with HT29 colon it was 0.457 µM; in the experiment with K-562 leukemia it was 0.13 µM; with LOX IMVI melanoma, 0.218 µM; with OVCAR-8 ovarian, 1.16 µM. For the same compound, the GI50 was 5.27 µM in the experiment with SN12C renal, 2.13 µM in the experiment on SNB-19 CNS, 0.146 µM in the experiment on U251 CNS and 0.809 µM in the experiment on UACC-62 melanoma. Further, the TGI in the experiment on ACHN renal is 23.6 µM; with EKVX NSCLC it was 22.7 µM; in the experiment with HT29 colon it was 15.7 µM; in the experiment with K-562 leukemia it was > 53.8 µM; in the experiment with LOX IMVI melanoma, 5.83 µM; in the experiment with OVCAR-8 ovarian it was 29.2 µM. Also, the TGI in the experiment with SN12C renal stood at 27.9 µM; in the experiment on SNB-19 CNS, 33.4 µM; in the experiment on U251 CNS, 13.7 µM; in the experiment on UACC-62 melanoma, 11.1 µM.

Regarding `CN(C)c1nc(=NCc2ccco2)ss1`, the TGI was 45 µM in the experiment on ACHN renal; 64.3 µM with EKVX NSCLC; 20.4 µM in the experiment with HT29 colon; > 90.8 µM in the experiment with K-562 leukemia; 38.4 µM with LOX IMVI melanoma; 62.4 µM with OVCAR-8 ovarian. For the same compound, the TGI in the experiment on SN12C renal is 57.2 µM; with SNB-19 CNS, > 80.4 µM; in the experiment with U251 CNS, 67.5 µM; with UACC-62 melanoma, > 70.5 µM.

Consider `O=c1cc(-c2ccc(O)cc2)oc2cc(O[C@@H]3O[C@H](CO)[C@@H](O)[C@H](O)[C@H]3O)cc(O)c12`, for which the TGI with ACHN renal, in the experiment with EKVX NSCLC, in the experiment with HT29 colon, in the experiment on K-562 leukemia, in the experiment with LOX IMVI melanoma and in the experiment with OVCAR-8 ovarian was > 100 µM each time. In addition, the TGI in the experiment with SN12C renal, in the experiment with SNB-19 CNS, with U251 CNS and with UACC-62 melanoma was > 100 µM throughout.
